Measurements published in patent US4175081A, “5-Substituted thiadiazole ureas” (priority 1977, dated 1979).

What was measured:
[1] = system: Turnip (TP); test: Post-emergence herbicide test; format: in vivo, Brassica sp.; settings: Brassica rapa, post-emergence, 336 h, two weeks after treatment; for pest or weed control at 8966.8 g/ha: 8 lb/acre
In short: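 A greenhouse post-emergence herbicide test on turnip. Seeds were sown on the surface of potting soil in 3' plastic pots, lightly covered with screened soil and watered from below. Planting was timed so seedlings had 1 or 2 true leaves above the cotyledons at spraying, done in a hood with a fixed nozzle. Control or injury was scored by eye after two weeks.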

[2] = system: Cotton (CT); test: Pre-emergence herbicide test; format: in vivo, Gossypium hirsutum var. DPL smooth leaf; settings: Gossypium hirsutum, 336 h, 8 lb/acre, two weeks after treatment
In short: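 Crop and weed species seeded one day before treatment, then sprayed pre-emergence at 8 lbs actual compound per acre (also 4 lbs/acre formulations) in 38 gallons per acre. Pots kept in greenhouse with sub-irrigation only; injury or control visually rated two weeks after treatment.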

[3] = system: Yellow foxtail grass (YF); test: Pre-emergence herbicide test; format: in vivo, Setaria glauca; settings: Setaria, 336 h, 8 lb/acre, two weeks after treatment
In short: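 Seeds surface-sown in potting soil one day before spraying; compounds applied pre-emergence at 8 or 4 lbs/acre in 38 gallons/acre spray. Pots held in greenhouse with sub-irrigation only. Injury or control rated visually two weeks after treatment.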

[4] = system: Yellow foxtail grass (YF); test: Post-emergence herbicide test; format: in vivo, Setaria glauca; settings: Setaria, 336 h, two weeks after treatment; for pest or weed control at 8966.8 g/ha: 8 lb/acre
In short: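 Potted seedlings grown in greenhouse, planting staggered to reach the target stage together, then sprayed post-emergence at 8 lbs actual compound/acre in 38 gallons/acre (4 lbs/acre formulations also prepared). Sub-irrigated afterwards. Injury or control rated visually two weeks after treatment.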

[5] = system: Corn (CN); test: Post-emergence herbicide test; format: in vivo; settings: Zea mays, 336 h, two weeks after treatment; for pest or weed control at 8966.8 g/ha: 8 lb/acre
In short: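 Greenhouse seedlings grown in potting soil and sprayed post-emergence at 8 lbs compound/acre (formulations also made for 4 lbs/acre) in 38 gallons/acre spray volume. Watering by sub-irrigation only. Injury or control rated visually two weeks after treatment.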

[6] = system: Barnyard grass (BG); test: Post-emergence herbicide test; format: in vivo; settings: Echinochloa crus-galli, 336 h, two weeks after treatment; for pest or weed control at 8966.8 g/ha: 8 lb/acre
In short: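 Greenhouse pot-grown barnyard grass seedlings sprayed post-emergence at 8 lbs active compound per acre (some at 4 lbs/acre) in 38 gallons per acre, then sub-irrigated. Injury or control rated visually two weeks after treatment.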

[7] = system: Cotton (CT); test: Post-emergence herbicide test; format: in vivo, Gossypium hirsutum var. DPL smooth leaf; settings: Gossypium hirsutum, post-emergence, 336 h, two weeks after treatment; for pest or weed control at 8966.8 g/ha: 8 lb/acre
In short: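 Cotton (Gossypium hirsutum var. DPL smooth leaf) was grown in 3' plastic pots of potting soil, four seeds per pot, planted at a depth equal to the seed diameter and watered by sub-irrigation. At the stage of expanded cotyledons with the first true leaf 1' long, plants were sprayed post-emergence in a hood with a fixed nozzle over a moving belt. Percent control was rated visually two weeks later.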

[8] = system: Johnson grass (JG); test: Post-emergence herbicide test; format: in vivo, Sorgum helepense; settings: Sorghum halepense, 336 h, two weeks after treatment; for pest or weed control at 8966.8 g/ha: 8 lb/acre
In short: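 Greenhouse pot-grown seedlings sprayed post-emergence at 8 lbs compound per acre (some at 4 lbs/acre) in 38 gallons per acre spray volume. Sub-irrigated thereafter. Injury/control rated visually two weeks after treatment.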

[9] = system: variety of crops and weed species; test: Pre- and post-emergence herbicide tests, overall assessment of Tables III-VI; format: in vivo; settings: data of Tables III-VI
Description: All crop and weed species were planted individually in 3' plastic pots containing potting soil. Four seeds each of corn, cotton, and snapbeans were seeded to a depth equal to the diameter of the seed. All other species were surface seeded and sprinkled with screened soil in an amount sufficient to cover the seed. Immediately after planting, all pots were watered by sub-irrigation in greenhouse trays. Pots for the pre-emergence phase were seeded one day before treatment.
Compounds were tested at rates of application equivalent to 8 lbs. of actual compound per acre in a spray volume of 38 gallons per acre. Spray hood constants required to deliver the above volume are as follows:
Two weeks after treatment, pre- and post-emergence injury or control was visually rated, and the results were as shown in the following tables. Pre-emergence data are provided in TABLE III and post-emergence data are provided in TABLE IV, for compounds having the formula illustrated in TABLE I. Correspondingly, pre-emergence and post-emergence data, respectively, are set forth in TABLES V AND VI, for compounds having the formula illustrated in TABLE II.

[10] = system: Corn (CN); test: Pre-emergence herbicide test; format: in vivo; settings: Zea mays, 336 h, 8 lb/acre, two weeks after treatment
In short: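 Four corn seeds per pot, sown at seed-diameter depth one day before spraying, got soil surface treatment at 8 lbs/acre (4 lbs/acre formulations also prepared) in 38 gallons/acre. Pots were greenhouse-held with sub-irrigation only. Injury or control was scored visually two weeks after treatment.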

[11] = system: Johnson grass (JG); test: Pre-emergence herbicide test; format: in vivo, Sorgum helepense; settings: Sorghum halepense, 336 h, 8 lb/acre, two weeks after treatment
In short: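 Pots seeded one day before spraying; compound applied pre-emergence at 8 lbs/acre (or 4 lbs/acre) in 38 gallons/acre spray volume. Sub-irrigated in greenhouse; injury/control rated visually two weeks after treatment.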

[12] = system: Barnyard grass (BG); test: Pre-emergence herbicide test; format: in vivo; settings: Echinochloa crus-galli, 336 h, 8 lb/acre, two weeks after treatment
In short: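 Barnyard grass surface-seeded in potting soil and sprayed pre-emergence one day after seeding, at 8 or 4 lb compound/acre in 38 gal/acre spray volume. Pots kept in greenhouse with sub-irrigation only; injury or control rated visually two weeks after treatment.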

[13] = system: Bean (BN); test: Post-emergence herbicide test; format: in vivo, Phaseolus vulgaris var. Black Valentine; settings: Phaseolus vulgaris, post-emergence, 336 h, two weeks after treatment; for pest or weed control at 8966.8 g/ha: 8 lb/acre
In short: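 Snapbean (Phaseolus vulgaris var. Black Valentine) was tested post-emergence. Four seeds were sown in 3' plastic pots of potting soil at a depth equal to the seed diameter, then sub-irrigated in greenhouse trays. Planting dates were staggered so plants were sprayed once primary leaves had expanded, with the growing point at the primary leaf nodes.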

[14] = system: Turnip (TP); test: Pre-emergence herbicide test; format: in vivo, Brassica sp.; settings: Brassica rapa, pre-emergence, 336 h; 8 lb/acre; two weeks after treatment
In short: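 Turnip (Brassica sp.) seeds were surface sown in 3' plastic pots of potting soil, covered with a thin layer of screened soil, and sub-irrigated in greenhouse trays. Pots were seeded one day ahead of treatment, sprayed pre-emergence under a hood with a fixed nozzle and moving belt, then kept in the greenhouse.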

[15] = system: Crabgrass (CG); test: Pre-emergence herbicide test; format: in vivo, Digitaria sanquinalis; settings: Digitaria sanguinalis, pre-emergence, 336 h; 8 lb/acre; two weeks after treatment
In short: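 Crabgrass (Digitaria sanquinalis) was surface seeded in 3' plastic pots of potting soil, covered with screened soil, and watered by sub-irrigation in greenhouse trays. Pots were seeded one day before spraying in a hood with a moving belt and fixed nozzle. Plants stayed in the greenhouse on sub-irrigation, and pre-emergence control was rated visually two weeks after treatment.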

[16] = system: Bean (BN); test: Pre-emergence herbicide test; format: in vivo, Phaseolus vulgaris var. Black Valentine; settings: Phaseolus vulgaris, 336 h, 8 lb/acre, two weeks after treatment
In short: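 Black Valentine bean was seeded in potting soil one day before spraying. Compound was applied pre-emergence at 8 lbs/acre (also 4 lbs/acre) in 38 gallons per acre. Plants were sub-irrigated and injury or control was rated visually after two weeks.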

[17] = system: Crabgrass (CG); test: Post-emergence herbicide test; format: in vivo, Digitaria sanquinalis; settings: Digitaria sanguinalis, post-emergence, 336 h, two weeks after treatment; for pest or weed control at 8966.8 g/ha: 8 lb/acre
In short: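 Crabgrass (Digitaria sanquinalis) was surface seeded individually in 3' plastic pots of potting soil, covered with screened soil, and watered by sub-irrigation in greenhouse trays. Planting was staggered so seedlings reached the target stage together. Post-emergence sprays were applied in a hood with a removable belt and fixed nozzle, and control was visually rated two weeks after treatment.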

[18] = system: Amaranth pigweed (PW); test: Pre-emergence herbicide test; format: in vivo, Amaranthus retroflexus; settings: 336 h, 8 lb/acre, two weeks after treatment
In short: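 Pigweed was surface-seeded in potted soil one day before spraying at 8 lbs compound per acre, or 4 lbs/acre, in 38 gallons per acre. Pots were kept in the greenhouse with sub-irrigation only; injury or control was rated visually two weeks after treatment.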

[19] = system: Amaranth pigweed (PW); test: Post-emergence herbicide test; format: in vivo, Amaranthus retroflexus; settings: 336 h, two weeks after treatment; for pest or weed control at 8966.8 g/ha: 8 lb/acre
In short: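 Pot-grown pigweed was sprayed post-emergence at the 1–2 true-leaf stage with compound at rates equivalent to 8 lbs per acre (formulations also prepared for 4 lbs/acre) in 38 gallons per acre, using a hood with fixed nozzle. Plants were sub-irrigated in the greenhouse, and injury or control was rated visually two weeks after treatment.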

SMILES | pest or weed control at 8966.8 g/ha [1] | pest or weed control at 8966.8 g/ha [2] | pest or weed control at 8966.8 g/ha [4] | pest or weed control at 8966.8 g/ha [5] | pest or weed control at 8966.8 g/ha [6] | pest or weed control at 8966.8 g/ha [7] | pest or weed control at 8966.8 g/ha [8] | herbicidal effectiveness / selectivity, in words [9] | pest or weed control at 8966.8 g/ha [10] | pest or weed control at 8966.8 g/ha [11] | pest or weed control at 8966.8 g/ha [12] | pest or weed control at 8966.8 g/ha [13] | pest or weed control at 8966.8 g/ha [14] | pest or weed control at 8966.8 g/ha [15] | pest or weed control at 8966.8 g/ha [16] | pest or weed control at 8966.8 g/ha [17] | pest or weed control at 8966.8 g/ha [18] | pest or weed control at 8966.8 g/ha [19] | also measured
O=C(Nc1ccc(Cl)c(Cl)c1)Nc1nnc(C(F)(F)F)s1 [Example 16] | 40% | 30% | 20% | 20% | 20% | 20% | 20% | more selective when applied to a certain crop or weed species | 30% | 10% | 10% | 40% | 30% | 10% | 80% | 20% |  |  | pest or weed control at 8966.8 g/ha [3]: 10%
Cc1nnc(NC(=O)N(C)C)s1 [Example 19] | 50% | 30% | 20% | 20% | 10% | 40% | 20% | The converse of this relationship | 80% | 20% | 10% | 50% | 20% | 10% | 80% | 20% | 10% | 40% | 
CNC(=O)Nc1nnc(CC(C)C)s1 [Example 21] | 20% | 10% |  | 20% | 20% | 50% | 30% | more selective when applied to a certain crop or weed species | 10% | 10% | 10% | 60% | 20% | 20% | 100% | 30% | 60% | 20% | 
CNC(=O)Nc1nnc(SC)s1 [Example 26] | 100% | 100% | 90% | 40% | 60% | 90% | 100% | extremely effective when applied to a variety of crops and weed species | 50% |  | 50% | 100% | 30% | 100% | 30% | 100% |  | 100% | pest or weed control at 2241.7 g/ha ([1]; 2 lb/acre): 60%; pest or weed control at 4483.4 g/ha ([1]; 4 lb/acre): 100%; pest or weed control ([4]; 2 lb/acre): 60%; pest or weed control at 4483.4 g/ha ([4]; 4 lb/acre): 100%; pest or weed control ([5]; 2 lb/acre): 20%; pest or weed control at 4483.4 g/ha ([5]; 4 lb/acre): 100%; pest or weed control at 2241.7 g/ha ([6]; 2 lb/acre): 10%; pest or weed control at 4483.4 g/ha ([6]; 4 lb/acre): 100%; pest or weed control at 2241.7 g/ha ([19]; 2 lb/acre): 90%; pest or weed control at 4483.4 g/ha ([19]; 4 lb/acre): 100%; pest or weed control at 2241.7 g/ha ([7]; 2 lb/acre): 100%; pest or weed control at 4483.4 g/ha ([7]; 4 lb/acre): 90%; pest or weed control ([8]; 2 lb/acre): 30%; pest or weed control at 4483.4 g/ha ([8]; 4 lb/acre): 80%; pest or weed control at 2241.7 g/ha ([13]; 2 lb/acre): 100%; pest or weed control at 4483.4 g/ha ([13]; 4 lb/acre): 100%; pest or weed control ([17]; 2 lb/acre): 50%; pest or weed control at 4483.4 g/ha ([17]; 4 lb/acre): 100%
